# In patent US11708549B2, “Bacterial, fungal, and yeast growth inhibitor containing allulose” (CJ CHEILJEDANG CORPORATION, priority 2016, dated 2023):
# Tests used:
# [1] = system: Saccharomyces cerevisiae and Saccharomyces pastorianus, as yeasts; test: Increase in cell number of yeasts depending on saccharides; format: cell-based; details: yeasts in modified YMB medium, FIGS. 8 and 9
# Excerpt: (§1) Specifically, each of the microorganisms (bacteria, fungi, and yeasts) obtained from Korean Culture Center of Microorganisms (KCCM) was subcultured three or four times in a culture medium (Table 1) by a typical method to enhance activity. Then, the cultured microorganism was inoculated into a culture medium (Table 1), followed by inducing over-cultivation to a concentration of 10^5 CFU/mL or more, thereby obtaining a strain mother liquor (Table 1).
# (§2) In order to compare degrees of inhibition of the growth of microorganisms depending upon the kind of purely added saccharides without a bias due to alcohol and other additives contained in a fermented alcoholic beverage, only the kind of saccharides added to a culture medium for each of the microorganisms was varied and investigated.
# (§3) Specifically, as saccharides of a culture medium suited to each strain, water-containing crystalline glucose (purity 98 wt % or more, CJ Cheiljedang), sucrose (purity 98 wt % or more, CJ Cheiljedang), and crystalline allulose (purity: 98 wt % or more, CJ Cheiljedang) were added to each of the culture medium, thereby preparing a modified culture medium (Tables 2 to 4). […]
# (§4) Thereafter, the measured number of cell colonies was multiplied by a dilution factor, thereby calculating a value of colony forming unit (CFU) per mL of sample.
# [2] = system: Lactobacillus casei and Lactococcus lactis subsp. lactis, as bacteria; test: Increase in cell number of bacteria depending on saccharides; format: cell-based; details: bacteria in modified MRS medium, FIGS. 1 and 2
# Excerpt: as §1, §2, §3, §4
smiles,measurement,setting,value
O=C(CO)C(O)C(O)C(O)CO (centres unmarked) [allulose],strain growth (in words),[1],substantially no strain growth was observed
same,strain growth (in words),[2],substantially no strain growth was observed
